For 21 molecules, Activity, IC50 and EC50 results are on record in ChEMBL document CHEMBL5104160, “In vitro and in vivo neuroprotective effect of novel mPGES-1 inhibitor in animal model of Parkinson's disease” (Bioorg Med Chem Lett, 2022).

The source made the active and inactive calls. No cut-off for these calls is given here. A value given as a limit tells only on which side of the number the result lay.

The IC50 is the point on the concentration scale where inhibition reaches its midpoint.

Series [1] relates to RAW264.7. As to the kind of experiment: Cytotoxicity against mouse RAW264.7 cells assessed as decrease in cell viability at 1 uM. In kind it is toxicity, cell-based. The following applies: raw264.7, 1 µM.
Series [2] can be described thus: Inhibition of PGE2 production in LPS-induced mouse RAW264.7 cells. In kind it is functional, cell-based.
In series [3] the test system is Mus musculus. As to the kind of experiment: Neuroprotective effect in 6-OHDA-induced lesioned mouse model of Parkinson's disease assessed as decrease in time to turn at 80 mg/kg/day, po administered for 7 days measured by Pole test. It counts as functional, organism-based. The following applies: time 7.0 day.
The subject of series [4] is Mus musculus. As to the kind of experiment: Neuroprotective effect in 6-OHDA-induced lesioned mouse model of Parkinson's disease assessed as decrease in time for locomotion activity at 80 mg/kg/day, po administered for 7 days measured by Pole test. It counts as functional, organism-based. The following applies: time 7.0 day.
Another series relates to A549. As to the kind of experiment: Inhibition of PGE2 production in IL-1beta-induced human A549 cells assessed as decrease in PGE2 production measured after 24 hrs by enzyme immunoassay. In kind it is functional, cell-based. The following applies: A549, 24 h.
Series [5] deals with Mus musculus. As to the kind of experiment: Neuroprotective activity against in 6-OHDA-induced neurotoxicity in mouse assessed as increase in tyrosine hydroxylase (TH)-positive fibers in striatum of brain at 1 mg/kg/day, ip administered for 7 days measured by immunohistochemistry analysis. It counts as functional, organism-based. The following applies: time 7.0 day.
For series [6], the system named is Mus musculus. As to the kind of experiment: Neuroprotective effect in 6-OHDA-induced lesioned mouse model of Parkinson's disease assessed as increase in latency time at 1 mg/kg/day, ip administered for 7 days measured by rotarod test. It counts as functional, organism-based. As to conditions: time 7.0 day. (In general: Falling from the rotarod earlier than controls is read as motor impairment.)

The subject of series [7] is Mus musculus. As to the kind of experiment: Neuroprotective effect in 6-OHDA-induced lesioned mouse model of Parkinson's disease assessed as decrease in falling frequency at 1 mg/kg/day, ip administered for 7 days measured by rotarod test. In kind it is functional, organism-based. As to conditions: time 7.0 day.
The test system of a further series is Blood. As to the kind of experiment: Inhibition of PGE2 production in LPS-induced human whole blood. It counts as functional, tissue-based.
Another series has as its target T1, Prostaglandin E synthase (Homo sapiens, UniProt O14684).
T1 sequence (O14684 whole entry): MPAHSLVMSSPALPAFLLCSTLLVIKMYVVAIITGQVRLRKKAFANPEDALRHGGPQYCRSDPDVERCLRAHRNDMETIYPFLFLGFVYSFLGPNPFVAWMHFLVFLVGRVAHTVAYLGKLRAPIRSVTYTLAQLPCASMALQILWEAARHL
As to the kind of experiment: Inhibition of human mPGES-1 assessed as reduction in PGE2 production.

Series [8] deals with Mus musculus. As to the kind of experiment: Neuroprotective effect in 6-OHDA-induced lesioned mouse model of Parkinson's disease assessed as decrease in time for locomotion activity at 1 mg/kg/day, ip administered for 7 days measured by Pole test. In kind it is functional, organism-based. The following applies: time 7.0 day.
Series [9] concerns PC-12. As to the kind of experiment: Neuroprotective activity against 6-OHDA-induced cytotoxicity in rat PC-12 cells measured after 3 hrs by MTT assay. It counts as functional. As to conditions: read-out: ED50 (the source's name). Background: Formazan colour is commonly taken as a measure of viable cells.
Series [10] has as its system Mus musculus. As to the kind of experiment: Neuroprotective effect in 6-OHDA-induced lesioned mouse model of Parkinson's disease assessed as decrease in time to turn at 1 mg/kg/day, ip administered for 7 days measured by Pole test. It counts as functional, organism-based. The following applies: time 7.0 day.
The subject of series [11] is Mus musculus. As to the kind of experiment: Neuroprotective activity against in 6-OHDA-induced neurotoxicity in mouse assessed as increase in tyrosine hydroxylase (TH)-positive neurons in substantia nigra pars compacta of brain at 1 mg/kg/day, ip administered for 7 days measured by immunohistochemistry analysis. It counts as functional, organism-based. The following applies: time 7.0 day.

The test system of series [12] is RAW264.7. As to the kind of experiment: Cytotoxicity against mouse RAW264.7 cells assessed as decrease in cell viability at 100 to 1000 nM. It counts as toxicity, cell-based. The following applies: raw264.7, 1 µM, dose 100-1000 nM.
Series [13] deals with PC-12. As to the kind of experiment: Neuroprotective activity against 6-OHDA-induced cytotoxicity in rat PC-12 cells at 10 uM measured after 12 hrs by MTT assay. It counts as functional, cell-based.

As for `Cc1cc(C)c(S(=O)(=O)N(Nc2ccccc2)C(=O)Oc2cccc3c2CCC3)c(C)c1`, the Activity entry with RAW264.7 [1] is “Non-Toxic”. In series [2], the IC50 is 313 nM.
For `O=C(Oc1ccc(OCc2ccccc2)cc1)N(Nc1ccccc1)S(=O)(=O)c1ccc(C(F)(F)F)cc1`, in that order: “Non-Toxic” and 47.1 nM.
For `Cc1ccc(S(=O)(=O)N(Nc2ccccc2)C(=O)Oc2cccc3c2CCC3)cc1`, in that order: “Non-Toxic” and 398 nM.
The like results for `O=C(Oc1cccc2c1CCC2)N(Nc1ccccc1)S(=O)(=O)c1ccc(C(F)(F)F)cc1` were, in that order, “Non-Toxic” and 246 nM.
With `Cc1cccc(NN(C(=O)Oc2ccc([N+](=O)[O-])cc2)S(=O)(=O)c2ccc(Cl)cc2)c1`, the Activity result with RAW264.7 [1] is on record as “Non-Toxic”. In addition, in [2], the IC50 was determined as 806 nM.
The like results for `O=C(Oc1ccc(Oc2ccccc2)cc1)N(Nc1ccccc1)S(=O)(=O)c1ccc(-c2ccccc2)cc1` were, in that order, “Non-Toxic” and 161 nM.
For `O=C(Oc1ccc([N+](=O)[O-])cc1)N(Nc1ccc(Cl)cc1)S(=O)(=O)c1ccc(Cl)cc1`, in that order: “Non-Toxic” and 645 nM.
Regarding `N[C@@H](Cc1ccc(O)c(O)c1)C(=O)O`, the result in the series on Mus musculus [3] and in the series on Mus musculus [4] was Active.
On to `O=C(Oc1cccc2c1CCC2)N(Nc1ccccc1)S(=O)(=O)c1ccc(Cl)cc1`, for which, in the series with RAW264.7 [1], the Activity entry is reported as “Non-Toxic”. Moreover, the IC50 in [2] was 429 nM.
Take `O=C(Oc1ccccc1)N(Nc1ccccc1)S(=O)(=O)c1ccc(F)cc1`: in the series with RAW264.7 [1], the Activity entry is “Non-Toxic”.
For `O=C(Oc1ccc(OCc2ccccc2)cc1)N(Nc1ccccc1)S(=O)(=O)c1ccc(-c2ccccc2)cc1`, the Activity result in the series on RAW264.7 [1] is listed as “Non-Toxic”. Also, 93 nM corresponded to half-maximal inhibition in [2] (IC50).
The like results for `O=C(Oc1ccc([N+](=O)[O-])cc1)N(Nc1cccc(Cl)c1)S(=O)(=O)c1ccc(Cl)cc1` were, in that order, “Non-Toxic” and 759 nM.
For `Cc1ccccc1NN(C(=O)Oc1ccccc1)S(=O)(=O)c1ccc(Cl)cc1`, in that order: “Non-Toxic” and over 1000 nM.
With `Cc1cc(C)c(S(=O)(=O)N(Nc2ccccc2)C(=O)Oc2ccc(OCc3ccccc3)cc2)c(C)c1`, the Activity entry with RAW264.7 [1] is given as “Non-Toxic”.
As for `CCc1ccc(S(=O)(=O)N(Nc2ccccc2)C(=O)Oc2ccc(Oc3ccccc3)cc2)cc1`, the Activity entry with RAW264.7 [1] is recorded as “Non-Toxic”. The molecule also showed an IC50 in series [2] of 434 nM.
The like results for `Cc1cc(C)c(S(=O)(=O)N(Nc2ccccc2)C(=O)Oc2ccc(Oc3ccccc3)cc2)c(C)c1` were, in that order, “Non-Toxic” and 177 nM.
The like results for `O=C(Oc1ccc(OCc2ccccc2)cc1)N(Nc1ccccc1)S(=O)(=O)c1ccc(Cl)cc1` were, in that order, “Non-Toxic” and 59.1 nM.
For the molecule `O=C(Oc1ccccc1)N(Nc1ccccc1)S(=O)(=O)c1ccc(Br)cc1`, in the series on RAW264.7 [1], the Activity entry is listed as “Non-Toxic”.
On to `O=C(Oc1ccc(OCc2ccccc2)cc1)N(Nc1cccc(Cl)c1)S(=O)(=O)c1ccc(Cl)cc1`, for which the IC50 in the series with A549 came out at 145 nM; in the series on Blood, 428 nM; at Prostaglandin E synthase, 1.16 nM; in [2], 41.8 nM. For the same molecule, the result in the series on Mus musculus [5], with Mus musculus [6], in the series on Mus musculus [7], in the series with Mus musculus [8], in the series on Mus musculus [10] and in the series with Mus musculus [11] was Active. Besides, in the series on PC-12 [13], the result was Active. Further, the Activity result with RAW264.7 [1] and with RAW264.7 [12] was “Non-Toxic” in each case. Moreover, in the series with PC-12 [9], the EC50 was determined as 3 nM.
On to `CC(C)(C)c1ccc(S(=O)(=O)N(Nc2ccccc2)C(=O)Oc2ccc(OCc3ccccc3)cc2)cc1`, for which the Activity entry in the series on RAW264.7 [1] is “Non-Toxic”.
On to `Cc1ccccc1NN(C(=O)Oc1ccccc1)S(=O)(=O)c1ccccc1`, for which the Activity result with RAW264.7 [1] was “Non-Toxic”. Also, the IC50 in series [2] amounted to 1000 nM.
